Test results as given in PubChem BioAssay AID2305 (GlaxoSmithKline (GSK), 2010).

The molecules below were run on P. falciparum 3D7 growth, pLDH absorbance (assay: P. falciparum 3D7 growth inhibition, dose response, strain 3D7 (AID 2305)).

| Structure (SMILES) | IC50 [µM] |
| --- | --- |
| CN(C)CCOc1ccc(-c2cc(-c3ccncc3)c(-c3ccc(Cl)c(O)c3)[nH]2)cc1 | 0.22 |
| CCNc1cc(C)nc(Nc2ccc(NC(=O)C3CCCC3)cc2)n1 | 1.12 |
| CCSc1nnc(C2CCCN(CC(=O)Nc3cc(C(F)(F)F)ccc3Cl)C2)n1CC (stereo not given) | 0.23 |
| CC=CC(=O)N1CCN(c2nccc(-c3ccc(C(C)(C)C)cc3)n2)CC1 | 1.08 |
| NC(=NCc1ccccc1)Nc1cccc(Cc2ccccc2)n1 | 0.86 |
| O=C(NCCCCN1CCC(c2ccc(Br)cc2)CC1)c1ccc(NC(=O)c2ccc(Cl)cc2)cc1 | 0.71 |
| O=C(NCc1cccc2ccccc12)C1CCCN(C(=O)c2ccc(O)c(-c3ccc(Cl)c(Cl)c3)c2)C1 (stereo not given) | 1.03 |
| Fc1cc(Cl)ccc1Nc1ccnc(Nc2ccc3cn[nH]c3c2)n1 | 0.74 |
| COc1ccc2nccc([C@@H](O)CN3CCC(NCC(O)Cc4ccccc4)CC3)c2c1 (stereo not given in full) | 0.67 |
| Cc1ccc(NC(=O)c2ccc3nccnc3c2)cc1OC1CCN(Cc2ccc(F)cc2)CC1 | 1.01 |
| COc1cc2nc(N3CCC(CCCC4CCNCC4)CC3)nc(NCc3ccccn3)c2cc1OC | 0.76 |
| COc1ccc(C2C(C(=O)Nc3cc(Cl)c(OC)cc3OC)c3ccccc3C(=O)N2C)cc1 (stereo not given) | 0.82 |
| FC(F)(F)c1ccc2nc(-c3ccc(-c4ccc(CNCc5cnn(-c6ccccc6)n5)cc4)cc3)[nH]c2c1 | 0.43 |
| CC(Cc1ccc(NC(=O)CCNCc2ccccc2)cc1)NCCc1cccc(Cl)c1 (stereo not given) | 0.15 |
| CCOc1c(Br)cc(C)cc1CNCCCNc1nc2ccccc2[nH]1 | 0.67 |
| CCCc1cc(=O)[nH]c(-n2nc(C)cc2NC(=O)CC(c2ccccc2)c2ccccc2)n1 | 0.62 |
| O=C(C=Cc1ccc(Cl)c(Cl)c1)NCCCCCN1CCC(CCNC(=O)c2sc3ccccc3c2Cl)CC1 | 1.01 |
| O=C(c1ccc([N+](=O)[O-])o1)N1CCN(c2ccccc2)CC1 | 0.04 |
| COc1ccc(Cl)cc1N1CCN(CCCNC(=O)c2ccc(-c3nc4cc(Cl)c(Cl)cc4[nH]3)c(C)c2)CC1 | 0.87 |
| CC(C)c1ccc(C=CC(=O)NC2CCC(CN3CCC(c4c[nH]c5ccccc45)CC3)CC2)cc1 (stereo not given) | 0.81 |
| Cc1cc(NN=Cc2ccc(Cl)cc2)c2cccc(C)c2n1 | 0.72 |
| c1ccc2c(CNCCCN3CCN(CCCNCc4c5ccccc5cc5ccccc45)CC3)c3ccccc3cc2c1 | 0.18 |
| CCN(CCCN1CCCCC1)c1cc(C)nc(Nc2ccc(Cl)cc2C)n1 | 0.73 |
| Cc1onc(-c2ccccc2)c1C(=O)Nc1nc(-c2ccccn2)nc2ccsc12 | 0.69 |
| CCCC(C)N(Cc1ccc(C(C)(C)C)cc1)C(=O)c1cccc(OC)c1 (stereo not given) | 0.34 |

| Structure (SMILES) | IC50 [µM] |
| --- | --- |
| O=C(Nc1ccc(-c2cccc(-c3nc4ccccc4[nH]3)c2)cc1)c1cnn2cccnc12 | 0.6 |
| O=[N+]([O-])c1ccc(NC(=NCCOc2ccccc2)Nc2ccccc2Br)c(O)c1 | 1.05 |
| Cc1cccc(Cn2ccc3c4c(N)nc(N)nc4ccc32)c1 | 0.01 |
| CN(C)Cc1cccc(-c2ccc3ccnc(N)c3c2)c1 | 0.12 |
| CCCCCCCCc1c(C)[nH]c(C)c(C#N)c1=O | 0.4 |
| c1ccc2c(c1)ncn2-c1ccnc(Nc2ccncc2)n1 | 0.65 |
| Cn1c(Cc2ccccc2)nnc1Sc1ccc(C#N)c([N+](=O)[O-])c1 | 0.91 |
| O=C(NCCN1CCOCC1)c1ccc(CNC(=O)c2ccc(O)c(-c3ccc(Cl)c(Cl)c3)c2)cc1 | 0.93 |
| COc1ccc(CN2CCN(CCOC(c3ccccc3)c3ccccc3)CC2)c(O)c1 | 1.19 |
| Cc1ccc(CC(C)NCC(O)c2cccc(Br)c2)cc1 (stereo not given) | 0.8 |
| O=C(Cc1n[nH]c(=O)c2ccccc12)Nc1cccc(C(=O)Nc2cccc(C(F)(F)F)c2)c1 | 0.17 |
| Cc1c2ccncc2c(C)c2c1[nH]c1ccccc12 | 0.8 |
| O=C(NC1CCN(Cc2ccccc2)CC1)c1cccc(-c2cc3cc(Cl)c(Cl)cc3[nH]2)c1 | 0.72 |
| COc1cccc(-c2ccc3c(-c4cccc(NC(C)=O)c4)cnc(N)c3c2)c1 | 0.11 |
| Clc1cnc2ccc3c(c2c1CCN1CCC(NCc2cc4c(cn2)OCCO4)CC1)OCCO3 | 0.72 |
| O=C(/C=C/c1ccc(Cl)c(Cl)c1)NCCCCCN1CCC(NC(=O)c2ccc(F)cc2F)CC1 | 0.76 |
| CC(=O)OCCN1C(=O)c2ccc3c4c(ccc(c24)C1=O)C(=O)N(CCOC(C)=O)C3=O | 0.24 |
| COc1cc(CNCCCCCCNCc2cc(OC)c(OC)c3ccccc23)c2ccccc2c1OC | 0.23 |
| O=C(Nc1ccc(Cl)c(C(F)(F)F)c1)c1ccc(Cl)c([N+](=O)[O-])c1 | 1.12 |
| CCN1CCN(CCCNc2c3ccc(Cl)cc3nc3ccc(OC)cc23)CC1 | 0.15 |
| O=C(C=Cc1cccs1)Nc1ccc(-c2nc3ccccc3[nH]2)cc1 | 1.14 |
| NC(=O)c1cccc(C(=O)Nc2cccc(-c3ccc(-c4nc5ccc(C(F)(F)F)cc5[nH]4)cc3)c2)c1 | 0.52 |
| CCCCCCNC(=O)c1nn(CCN2CCC(N3CCCC3)CC2)cc1-c1ccc(Cl)c(Cl)c1 | 0.73 |
| C=C(F)c1sc(CNCCCNc2nc3ccccc3[nH]2)c(C)c1Br | 0.37 |
| N#Cc1ccc2c(c1)CCN(CCC1CCC(NC(=O)/C=C/c3cccc4ccccc34)CC1)CC2 (stereo not given) | 0.73 |
